Results taken from patent US11207301B2, “Sphingosine 1 phosphate receptor agonists for neuroprotection” (RECEPTOS LLC, priority 2017, dated 2021).

How the values were obtained:
Assay type in all cases: cell-based
[1] = test system: AKT phosphorylation in primary rat astrocytes; experiment: AKT phosphorylation in primary rat astrocytes (MSD pAKT assay); conditions: Astrocyte, 10 min, 10-minute exposure, mean of n=4
Procedure: (§1) For the experiments using rat primary astrocytes, eight-point concentration-response curves were generated for AKT and ERK phosphorylation in primary rat astrocytes cultures in response to a 10-minute treatment with ozanimod (100 nM-46 pM), Compound 3 (10 nM-5 pM), Compound 1 (10 nM-5 pM), or FTY720-P (10 nM-5 pM). Phosphorylation of AKT and ERK was quantified using Meso Scale Discovery assay kits (MSD Mutli-Spot Phopho-AKT (Ser473) Assay Kit and MSD Multi-Spot MAP Kinase Phosphoprotein Assay Whole Cell Lysate Kit) and imaging platform. AKT and ERK phosphorylation within treated astrocytes were assessed as the mean change in signal intensity compared to DMSO vehicle and the half maximal effective concentration (EC50) was determined using non-linear regression.
(§2) Embryonic day18 (E18) rat cortices were purchased from BrainBits LLC. (Springfield, Ill.) and were cultured according to the supplier's protocol. Briefly, cortices were incubated at 37° C. for 10 minutes in activated papain solution before trituration in hibernation medium containing B27 supplement using a modified siliconized glass Pasteur pipette. The cell suspension was centrifuged at 1100×g for 1 minute at room temperature (RT). The cell pellet was then resuspended in NbAstro medium (BrainBits LLC.) and the live cell density was assessed using a cell counter. Primary cells were plated at a density of 7500 cells/cm2 in T75 tissue culture flasks coated with poly-D-lysine (PDL) in a total volume of 12 mL of NbAstro media, and incubated for 10-14 days at 37° C. 5% CO2. After 10-14 days, primary astrocytes in passage 0 (P0) that had reached confluency in the T75 flasks were detached using TrypLE detachment reagent, pelleted at 300×g, and plated into poly-d-lysine coated T225 flasks in 20 mL of NbAstro media, and incubated for another 7 days at 37° C. 5% CO2. After 7 days, primary P1 astrocytes in confluent T225 flasks were detached using TrypLE detachment reagent, pelleted at 300×g, and plated intopoly-d-lysine coated 96-well plates at 10,000 cells per well in 200 μL of NbAstro media, and incubated for 7 days at 37° C. 5% CO2. After 7 days, P2 primary astrocytes were utilized for pAKT and pERK assays.
(§3) The pAKT (phosphorylated AKT) assay was performed according to the manufacturer's protocol. Briefly, MSD pAKT plates were blocked for 1-2 hours by adding 150 μL of blocker A prepared in 1× Tris wash buffer. […] Following antibody incubation, plates were washed three times with 150 μL of 1× Tris wash buffer and 1× read buffer (150 μL/well) was added. Finally, plates were read in the MSD imager platform to assess pAKT levels.
(§4) AKT and ERK phosphorylation data were analyzed by non-linear regression (GraphPad Prism, version 6) to determine the EC50 values.

[2] = test system: ERK phosphorylation in primary rat astrocytes; experiment: ERK phosphorylation in primary rat astrocytes (MSD pERK assay); conditions: Astrocyte, 10 min, 10-minute exposure, mean of n=3
Procedure: as §1, §2
as §3, with “The pERK” for “The pAKT”, “(phosphorylated ERK)/pMAPkinase” for “(phosphorylated AKT)”, “MSD pERK/pMAPkinase” for “MSD pAKT”, “Finally, the” for “Finally,”, “assess the pERK” for “assess pAKT”
as §4

[3] = test system: AKT phosphorylation in primary mouse astrocytes; experiment: AKT phosphorylation in primary mouse cortical astrocytes (AlphaLISA SureFire Ultra); conditions: Astrocyte, 10 min, 10-minute exposure, mean of n=3
Procedure: (§5) For the experiments using mouse and human primary astrocytes, ten-point concentration-response curves (90 nM-4.57 pM or 30 nM-1.52 pM) were generated for AKT and/or ERK phosphorylation in primary human and mouse cortical astrocytic cultures in response to a 10-minute treatment with ozanimod, Compound 3, Compound 1, or FTY720-P. AKT and ERK phosphorylation were quantified using AlphaLISA SureFire Ultra Assay kits and the EnVision Plate Reader. AKT and ERK phosphorylation within treated astrocytes were expressed as the mean change in signal intensity compared to the dimethyl sulfoxide (DMSO) vehicle and the half maximal effective concentration (EC50) was determined using non-linear regression.
Timed pregnant (E16) C57BL/6J female mice arrive to the test facility on a weekly basis and were housed and cared for according to appropriate protocols for this model. Primary mouse cortical astrocytes are harvested from P0-P2 pups. The newly born animals were deeply anesthetized on ice, decapitated, and the brains were rapidly removed and stored in ice-cold NbAstro media (BrainBits, LLC). Cells were dissociated from freshly dissected cortices by mechanical disruption in the presence of trypsin and DNase. Cells were put into a PDL coated T75 tissue culture flask containing 16 mL NbAstro Media and incubated at 37° C. 5% CO2. Once the mouse astrocytes had reached confluency in the T75 flask, they were detached using TripLE detachment reagent, pelleted at 300×g, expanded into two T225 PDL coated tissue culture flasks containing 40 mL of NbAstro and incubated at 37° C. 5% CO2. Once the astrocytes reached confluency in the T225 flasks they were detached using TrypLE detachment reagent, pelleted at 300×g, plated into PDL coated 96-well plates at a density of 10,000 cells per well in 200 μL NbAstro and incubated at 37° C. 5% CO2. Half of the media was replenished every 3-4 days. After 5-7 days of incubation, the P2 mouse astrocyte plates were utilized for the pERK and pAKT assays.
Cell lysis and detection of pAKT were performed according to the PerkinElmer AlphaLISA SureFire Ultra pAKT1/2/3 ([…]) assay protocol. Astrocytes were lysed in the 96-well plate following a 10 minute incubation with compounds with shaking at room temperature (RT). The astrocytic lysates (10 μL/well) were transferred into a 384-well OptiPlate. As specified by the assay protocol, an acceptor bead mix and a donor bead mix (5 μL/well for each) were added to the plate under subdued light. […] The plates were read on the EnVision Plate Reader to assess the pAKT levels.
(§6) The AKT and ERK phosphorylation data, collected by a Perkin Elmer EnVision Microplate Reader, was analyzed by non-linear regression (GraphPad Prism, version 7.03) to determine the EC50 values.

[4] = test system: ERK phosphorylation in primary human astrocytes; experiment: ERK phosphorylation in primary human cortical astrocytes (AlphaLISA SureFire Ultra); conditions: Astrocyte, 10 min, 10-minute exposure, n=3-5
Procedure: as §5
Primary human astrocytes were purchased from ScienCell Research Laboratories, Inc. and cultured according to the supplier's protocol. The astrocytes were obtained from the human cerebral cortex, cryopreserved at passage one, and delivered frozen. The frozen vials of cells were gently thawed in a 37° C. water bath. Once the contents of the vial were completely thawed, the cell solution was dispensed into a poly-L-lysine (PLL) coated T75 tissue culture flask with 16 mL of human Astrocyte Media, (ScienCell Research Laboratories, Inc.) and incubated at 37° C. 5% CO2. Once the human astrocytes had reached confluency in the T75 flask, they were detached using trypsin/EDTA 0.25%, pelleted at 300×g, split into two PLL coated T225 tissue culture flasks in 40 mL of astrocyte media, and incubated at 37° C. 5% CO2. Once the astrocytes reached confluency in the T225 flasks, they were detached using trypsin/EDTA 0.25% solution, pelleted at 300×g, plated into poly-D-lysine (PDL) coated 96-well plates at a density of 10,000 cells per well in 200 μL human Astrocyte Media, and incubated at 37° C. 5% CO2. Half of the media was replenished every 3-4 days. After 5-7 days of incubation, the P2 human astrocyte plates were utilized for the pERK and pAKT assays.
Cell lysis and detection of pERK were performed according to the PerkinElmer AlphaLISA SureFire Ultra p-ERK1/2 (Thr202/TYR 204) assay protocol. Astrocytes were lysed in the 96-well plate following a 10 minute incubation with compounds with shaking at RT. The astrocytic lysates (10 μL/well) were transferred into a 384-well OptiPlate. As specified by the assay protocol, an acceptor bead mix and a donor bead mix (5 μL/well for each) were added to the plate under subdued light. Plates were sealed with adhesive plate seals and incubated in the dark for 2 hours at RT. The plates were read on the EnVision Plate Reader to assess the pERK levels.
as §6

Q: Which EC50 [1] does the source give for `CC(C)Oc1ccc(-c2nc(-c3cccc4c3CCC4NCC(=O)O)no2)cc1C#N` (stereo not shown) [Compound 3] here?
A: 0.23 nM

Q: What about the EC50 [2] of the same molecule?
A: 0.11 nM

Q: And the EC50 [3]?
A: 0.13 nM

Q: What about the EC50 [4] of the same molecule?
A: 0.5 nM
